Test results reported in PubChem BioAssay (NCI).
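Compound exposure: 48 hours, 5 concentrations, 96-well plates. TGI marks complete inhibition of growth.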

Columns and labels:
Assay in all cases: growth of human tumour cells (NCI), 48 h
SF-268 CNS = system: SF-268 CNS
NCI-H460 lung = system: NCI-H460 lung
HCT-116 colon = system: HCT-116 colon
OVCAR-8 ovarian = system: OVCAR-8 ovarian
MDA-MB-231 breast = system: MDA-MB-231 breast
SK-MEL-28 melanoma = system: SK-MEL-28 melanoma
UACC-257 melanoma = system: UACC-257 melanoma
PC-3 prostate = system: PC-3 prostate
NCI-H23 lung = system: NCI-H23 lung
SF-539 CNS = system: SF-539 CNS
SF-295 CNS = system: SF-295 CNS
SN12C renal = system: SN12C renal
UO-31 renal = system: UO-31 renal
OVCAR-4 ovarian = system: OVCAR-4 ovarian
TK-10 renal = system: TK-10 renal
SNB-19 CNS = system: SNB-19 CNS
HL-60(TB) leukemia = system: HL-60(TB) leukemia
MCF7 breast = system: MCF7 breast
786-0 renal = system: 786-0 renal
UACC-62 melanoma = system: UACC-62 melanoma
OVCAR-3 ovarian = system: OVCAR-3 ovarian
KM12 colon = system: KM12 colon
M14 melanoma = system: M14 melanoma
CCRF-CEM leukemia = system: CCRF-CEM leukemia
RPMI-8226 leukemia = system: RPMI-8226 leukemia
BT-549 breast = system: BT-549 breast
MDA-N = system: MDA-N
U251 CNS = system: U251 CNS
MDA-MB-435 = system: MDA-MB-435
COLO 205 colon = system: COLO 205 colon
EKVX NSCLC = system: EKVX NSCLC
DU-145 prostate = system: DU-145 prostate
SW-620 colon = system: SW-620 colon
LOX IMVI melanoma = system: LOX IMVI melanoma
OVCAR-5 ovarian = system: OVCAR-5 ovarian
HT29 colon = system: HT29 colon
SR leukemia = system: SR leukemia
K-562 leukemia = system: K-562 leukemia
HCT-15 colon = system: HCT-15 colon
MALME-3M melanoma = system: MALME-3M melanoma
SK-OV-3 ovarian = system: SK-OV-3 ovarian
T-47D breast = system: T-47D breast
HOP-62 NSCLC = system: HOP-62 NSCLC
HS 578T breast = system: HS 578T breast
SK-MEL-5 melanoma = system: SK-MEL-5 melanoma
HOP-92 NSCLC = system: HOP-92 NSCLC
NCI/ADR-RES ovarian = system: NCI/ADR-RES ovarian
A549 NSCLC = system: A549 NSCLC
ACHN renal = system: ACHN renal
CAKI-1 renal = system: CAKI-1 renal
SK-MEL-2 melanoma = system: SK-MEL-2 melanoma
MOLT-4 leukemia = system: MOLT-4 leukemia
IGROV1 ovarian = system: IGROV1 ovarian
NCI-H522 lung = system: NCI-H522 lung
A498 renal = system: A498 renal
NCI-H226 lung = system: NCI-H226 lung
SNB-75 CNS = system: SNB-75 CNS

## CC#C[C@]1(O)CCC2[C@@H]3CCC4=CC(=O)CCC4=C3[C@@H](c3ccc(N(C)C)cc3)C[C@@]21C (some centres not stated)
SF-268 CNS
  TGI: 27.6 µM
NCI-H460 lung
  TGI: 28.3 µM
HCT-116 colon
  TGI: 39.6 µM
OVCAR-8 ovarian
  TGI: > 100 µM
MDA-MB-231 breast
  TGI: 35.4 µM
SK-MEL-28 melanoma
  TGI: 29.5 µM
UACC-257 melanoma
  TGI: 36.5 µM
PC-3 prostate
  TGI: 88.7 µM
NCI-H23 lung
  TGI: 62.1 µM
SF-539 CNS
  TGI: 28.5 µM
SF-295 CNS
  TGI: 30.1 µM
SN12C renal
  TGI: 52 µM
UO-31 renal
  TGI: 28.2 µM
OVCAR-4 ovarian
  TGI: 33.5 µM
TK-10 renal
  TGI: 43.1 µM
SNB-19 CNS
  TGI: 98.3 µM
HL-60(TB) leukemia
  TGI: 38 µM
MCF7 breast
  TGI: 20.8 µM
786-0 renal
  TGI: 37.2 µM
UACC-62 melanoma
  TGI: 18.6 µM
OVCAR-3 ovarian
  TGI: 23.5 µM
KM12 colon
  TGI: 65.2 µM
M14 melanoma
  TGI: 32.1 µM
CCRF-CEM leukemia
  TGI: 37.5 µM
RPMI-8226 leukemia
  TGI: 7.15 µM
BT-549 breast
  TGI: 50.7 µM
MDA-N
  TGI: 49.3 µM
U251 CNS
  TGI: 35.2 µM
MDA-MB-435
  TGI: 34 µM
COLO 205 colon
  TGI: 24.1 µM
EKVX NSCLC
  TGI: 53 µM
DU-145 prostate
  TGI: 73.1 µM
SW-620 colon
  TGI: > 100 µM
LOX IMVI melanoma
  TGI: 33.7 µM
OVCAR-5 ovarian
  TGI: 79.1 µM
HT29 colon
  TGI: 28.7 µM
SR leukemia
  TGI: 37.1 µM
K-562 leukemia
  TGI: 58.8 µM
HCT-15 colon
  TGI: > 100 µM
MALME-3M melanoma
  TGI: 42 µM
SK-OV-3 ovarian
  TGI: 72.4 µM
T-47D breast
  TGI: > 100 µM
HOP-62 NSCLC
  TGI: 50.3 µM
HS 578T breast
  TGI: 33.9 µM
SK-MEL-5 melanoma
  TGI: 24.6 µM
HOP-92 NSCLC
  TGI: 8.55 µM
NCI/ADR-RES ovarian
  TGI: 89.3 µM
A549 NSCLC
  TGI: > 100 µM
ACHN renal
  TGI: > 100 µM
CAKI-1 renal
  TGI: 33 µM

## CC(=O)OCC1OC(N2C(=O)NC(=O)C3C=C4CCCCC4=CC32)CC1OC(C)=O (configuration not stated)
SK-MEL-2 melanoma
  TGI: > 100 µM
SF-268 CNS
  TGI: > 100 µM
NCI-H460 lung
  TGI: > 100 µM
HCT-116 colon
  TGI: > 100 µM
OVCAR-8 ovarian
  TGI: > 100 µM
MDA-MB-231 breast
  TGI: > 100 µM
SK-MEL-28 melanoma
  TGI: > 100 µM
UACC-257 melanoma
  TGI: > 100 µM
MOLT-4 leukemia
  TGI: > 100 µM
PC-3 prostate
  TGI: > 100 µM
SF-539 CNS
  TGI: > 100 µM
SF-295 CNS
  TGI: > 100 µM
SN12C renal
  TGI: > 100 µM
UO-31 renal
  TGI: > 100 µM
OVCAR-4 ovarian
  TGI: > 100 µM
TK-10 renal
  TGI: > 100 µM
IGROV1 ovarian
  TGI: > 100 µM
SNB-19 CNS
  TGI: > 100 µM
HL-60(TB) leukemia
  TGI: > 100 µM
MCF7 breast
  TGI: > 100 µM
786-0 renal
  TGI: > 100 µM
UACC-62 melanoma
  TGI: > 100 µM
OVCAR-3 ovarian
  TGI: > 100 µM
KM12 colon
  TGI: > 100 µM
M14 melanoma
  TGI: > 100 µM
RPMI-8226 leukemia
  TGI: > 100 µM
BT-549 breast
  TGI: > 100 µM
MDA-N
  TGI: > 100 µM
U251 CNS
  TGI: > 100 µM
MDA-MB-435
  TGI: > 100 µM
EKVX NSCLC
  TGI: > 100 µM
DU-145 prostate
  TGI: > 100 µM
SW-620 colon
  TGI: > 100 µM
LOX IMVI melanoma
  TGI: > 100 µM
OVCAR-5 ovarian
  TGI: > 100 µM
HT29 colon
  TGI: > 100 µM
SR leukemia
  TGI: > 100 µM
K-562 leukemia
  TGI: > 100 µM
NCI-H522 lung
  TGI: > 100 µM
HCT-15 colon
  TGI: > 100 µM
MALME-3M melanoma
  TGI: > 100 µM
SK-OV-3 ovarian
  TGI: > 100 µM
A498 renal
  TGI: > 100 µM
NCI-H226 lung
  TGI: > 100 µM
T-47D breast
  TGI: > 100 µM
HOP-62 NSCLC
  TGI: > 100 µM
HS 578T breast
  TGI: > 100 µM
HOP-92 NSCLC
  TGI: > 100 µM
NCI/ADR-RES ovarian
  TGI: > 100 µM
A549 NSCLC
  TGI: > 100 µM
ACHN renal
  TGI: > 100 µM
SNB-75 CNS
  TGI: > 100 µM
